Laboratory results from article PMC8302598, “Rapid discovery of self-assembling peptides with one-bead one-compound peptide library” (Nature Communications, 2021).
Values joined by “and” are separate entries in the source; they are usually repeats but may differ in a detail not shown here. Equal entries are not always repeated. “Also recorded” adds a separate entry of the source.

Experiments:
[1] = Appearance and TEM of 30 mM peptide in water; type: physicochemical; conditions: for Nanostructure under TEM: 30 mM in H2O; for Appearance of peptide in water: 30 mM in water, sonicated 3 min
Description: To further characterize these self-assembling peptides, we selected two positive peptides (FFVDF and YFTEF) and a negative control peptide (PFTTR) for the following studies: Fourier transform infrared (FT-IR) spectroscopy, UV−Vis spectra, and transmission electron microscopy (TEM).
Pentapeptides monomers were dissolved in DMSO at a concentration of 5.0 mM, followed by quick injection into water at a volume ratio of 1:99 for DMSO and H2O to obtain the nanomaterials solution (50 μM). For 30 mM pentapeptide solution, the pentapeptide was dissolved in water and sonicated for 3 min.
The pentapeptide solution with the concentration of 20 μM (10 μL) was placed dropwise onto a copper mesh for 5 min, then most of the liquid was removed through a filter paper. Ten microliters of uranyl acetate solution were employed to stain the samples for 5 min, followed by drying the spare liquid with the filter. Finally, the copper mesh was washed with 10 μL of deionized water, which was blotted after staining and drying at room temperature. All of the samples were observed by TEM (Tecnai G2 20 S-TWIN) at an accelerating voltage of 200 kV.

[2] = Turbidity test (transmittance spectra); type: physicochemical; conditions: 20 μM peptide in water
Description: To further confirm the peptide assembling in water, the solutions of pentapeptide were diluted to 20 μM for turbidity test.

HeLa cells = test: Time-dependent co-localization of FITC-labeled peptides with lysosomes (CLSM); type: cell-based; conditions: 50 μM; for Pearson correlation coefficient, peptide vs lysosomes, 2 h: peptide for 2 h; for Pearson correlation coefficient, peptide vs lysosomes, 4 h: peptide for 2 h and DMEM for 2 h; for Pearson correlation coefficient, peptide vs lysosomes, 8 h: peptide for 2 h and DMEM for 6 h
Description: Supplementary Figure 24. a) Time-dependent (2, 4, 8 h) CLSM images for monitoring and quantitatively analyzing uptake of fluorescent peptide assemblies (YFTEF, ISDNL, and FGFDP at 50 μM) by HeLa cells. The scale bar is 10 μm. b) Corresponding colocalization analysis of images from ‘a’. […]
Regarding the entrance of nanoparticles into HeLa cells, we have carried out additional experiments to address reviewer’s concern. To track the biodistribution of these peptides in the cytosol, peptides YFTEF, ISDNL and FGFDP were labeled by addition of FITC-labeled peptides (FITC-YFTEF, FITC-ISDNL, FITC-FGFDP) at 3% level, respectively, prior to self-assembly, and then incubated with HeLa cells for 2 h. The incubated cells were then washed with PBS three times and further incubated with Dulbecco's modified eagle medium without peptide for another 2 and 6 h. The lysosomes of the cells were stained with red fluorescence after 2 (peptide for 2 h), 4 (peptide for 2 h and DMEM for 2 h), or 8 h (peptide for 2 h and DMEM for 6 h) incubation, followed by CLSM observation.
For ISDNL, good co-localization (Pearson correlation coefficient: 0.92) between peptides and lysosomes […]
lysosomes (colocalization from 0.92 at 2 h, to 0.76 at 4 h and 0.69 at 8 h).
ISDNL based nanoparticles could escape from lysosomes over time.
For YFTEF, good co-localization (yellow fluorescence) between YFTEF (green fluorescence) and with […]
The co-localization efficiency for YFTEF and lysosomes remained high over time (4 h, 0.93; 8 h, 0.91).
For FGFDP, the Pearson correlation coefficient of lysosome was determined to be about 0.7 for 2 (0.74), 4 (0.79), 8 h (0.72). It seems that FGFDP might have escaped from lysosomes prior to the 2 h time point.
In order to confirm this hypothesis, we did the co-localization study at earlier time points: 30 min to 1 h.
The results reveal that FGFDP increased the distribution in the lysosome from 30 min (Pearson correlation coefficient: 0.59) to 1 h (Pearson correlation coefficient: 0.94), and then decreased to 0.74 at 2h. These […]
escape from lysosomes sometime between 1-2 h.

[3] = FITC-labeled peptide/Lyso-Tracker co-localization

Substance | Nanostructure under TEM [1] | Appearance of peptide in water [1] | Transmittance at 400 nm [2] [%] | Pearson correlation coefficient, peptide vs lysosomes, 30 min (HeLa cells; 3% FITC-labeled peptide, 30 min) | Pearson correlation coefficient, peptide vs lysosomes, 1 h (HeLa cells; 3% FITC-labeled peptide, 1 h) | Pearson correlation coefficient, peptide vs lysosomes, 2 h (HeLa cells; 3% FITC-labeled peptide) | Time of escape from lysosomes (HeLa cells; [3]) | Pearson correlation coefficient, peptide vs lysosomes, 4 h (HeLa cells) | Pearson correlation coefficient, peptide vs lysosomes, 8 h (HeLa cells) | Retention in lysosomes (HeLa cells; [3])
FFVDF [self-assembling pentapeptide identified from OBOC library, forms nanofibers] | entangled fibrous network | milky white solution | 88 |  |  |  |  |  |  | 
FGFDP [self-assembling pentapeptide identified from OBOC library] |  |  |  | 0.59 | 0.94 | 0.74 | 1 to 2 h and ~1.5 h | 0.79 | 0.72 | 
ISDNL [self-assembling pentapeptide identified from OBOC library] |  |  |  |  |  | 0.92 |  | 0.76 | 0.69 | 
YFTEF [self-assembling pentapeptide identified from OBOC library] | entangled fibrous network | milky hydrogel | 98 |  |  | 0.92 |  | 0.93 | 0.91 | remained in lysosomes at 8 h; also recorded: remained in lysosomes for 8 h without obvious escape
